Measurements taken from US9228991B2, “Methods and kits for detection of drugs” (RAMOT AT TEL-AVIV UNIVERSITY LTD., priority 2010, dated 2016).
Read-outs that look alike come from different tables or passages of the source.

Key:
[1] = cited from earlier work
[2] = GHB solubility / precipitation in anti-solvents
[3] = cited from earlier work; remark: listed apart in the source

Row | Compound | Physical Effect ([1]; GHB dose 4-8 (very high), 4-8% in drink) | dose at which a dangerous overdose can occur ([1]; depending on body weight and metabolism) | heavy dose ([1]; in vivo) | solubility in anti-solvent ([2]; acetonitrile) | solubility in anti-solvent ([2]; pure ethanol) | Physical Effect ([3]; ketamine dose 10-80 mg (low), <0.01-0.08% in drink) | Physical Effect ([3]; ketamine dose 130-250 mg (high), 0.13-0.25% in drink) | Physical Effect ([3]; ketamine dose >250 mg (mega), >0.25% in drink)
1 | O=C(O)CCCO [GHB, gamma-hydroxybutyrate] | Powerful deep sleep. | two | approximately 2.5 grams | mostly insoluble | mostly insoluble |  |  | 
2 | CNC1(c2ccccc2Cl)CCCCC1=O (centres unmarked) [ketamine] |  |  |  |  |  | Mild euphoria | K-hole, near comatose state | Powerful deep sleep.
